Test results reported in patent publication US20070293398A1, “Method for Controlling Coniferous Plants” (BASF Aktiengesellschaft, priority 2004, published 2007).

How the values were obtained:
[1] = system: wildling pine of the variety Loblolly (Pinus taeda); assay: Field experiment Site 4: wildling Loblolly pine control, damage rating 0 to 100%; type: in vivo; settings: field Site 4, combined with phenyluracil I.1.4
Procedure: The evaluation for the damage caused by the chemical compositions was carried out using a scale from 0 to 100%, compared to the untreated control plants. Here, 0 means no damage and 100 means complete destruction of the plants.

[2] = system: pine species (loblolly pine); assay: Field experiment Site 2: percent brownout of pine species following May application; type: in vivo, Pinus taeda; settings: Site 2, May application, 0.840 kg a.i./ha, 1 WAT
Procedure: For the following experiment the phenyluracil of formula I and optionally the herbicide B were applied as an aqueous spray liquor. Phenyluracil I.1.4 (phenyluracil of formula I) was used as emulsifiable concentrate (0.120 kg a.i./L). Imazapyr (herbicide B) was used as an emulsifiable concentrate (26.7% by weight; Chopper®/BASF Corporation). Glyphosate (herbicide B) was used as a soluble concentrate (53.8% by weight; Accord® Concentrate/Dow AgroScience) Methylated seed oil (MSO) was also added to the spray liquor in amounts of 25.0% volume/volume as a standard spray adjuvant. Water was used as the carrier. Spray carrier volume was 65 L/ha.
The spray liquor had the following general recipe (based on a spray volume of 65 L/ha):
Herbicide treatments were applied in the spring using a pole sprayer with a single KLC-9 flood tip spraying from a height of 335 cm. This application technique was used to simulate operational aerial applications as closely as practical. Treatment plots were 9×18 m.
Woody vegetation was assessed at treatment and in the fall of the year of treatment and one year after treatment (one and two growing seasons after treatment). The most common woody species on the site at treatment included loblolly pine (Pinus taeda), southern red oak (Quercus falcata), water oak (Quercus nigra) and Vaccinium spp. […]

Structure (SMILES) | effect of addition on control of wildling pine (in words) [1] | brownout of pine species [2] [%]
COc1c(Cl)ccc(Cl)c1C(=O)O [dicamba] | improved the control | 
CC(C)C1(C)N=C(c2ncccc2C(=O)O)NC1=O (centres unmarked) [imazapyr] |  | 2
